Assay results published in patent publication EP3839043A1, “SCREENING METHODS FOR COMPOUNDS MODULATING POLYAMINE TRANSPORT” (Katholieke Universiteit Leuven, priority 2019, dated 2021).

Target: T1, Purified ATP13A2 (Homo sapiens, UniProt Q9NQ11)
T1 sequence (Q9NQ11 1-1175 isoform Q9NQ11-3): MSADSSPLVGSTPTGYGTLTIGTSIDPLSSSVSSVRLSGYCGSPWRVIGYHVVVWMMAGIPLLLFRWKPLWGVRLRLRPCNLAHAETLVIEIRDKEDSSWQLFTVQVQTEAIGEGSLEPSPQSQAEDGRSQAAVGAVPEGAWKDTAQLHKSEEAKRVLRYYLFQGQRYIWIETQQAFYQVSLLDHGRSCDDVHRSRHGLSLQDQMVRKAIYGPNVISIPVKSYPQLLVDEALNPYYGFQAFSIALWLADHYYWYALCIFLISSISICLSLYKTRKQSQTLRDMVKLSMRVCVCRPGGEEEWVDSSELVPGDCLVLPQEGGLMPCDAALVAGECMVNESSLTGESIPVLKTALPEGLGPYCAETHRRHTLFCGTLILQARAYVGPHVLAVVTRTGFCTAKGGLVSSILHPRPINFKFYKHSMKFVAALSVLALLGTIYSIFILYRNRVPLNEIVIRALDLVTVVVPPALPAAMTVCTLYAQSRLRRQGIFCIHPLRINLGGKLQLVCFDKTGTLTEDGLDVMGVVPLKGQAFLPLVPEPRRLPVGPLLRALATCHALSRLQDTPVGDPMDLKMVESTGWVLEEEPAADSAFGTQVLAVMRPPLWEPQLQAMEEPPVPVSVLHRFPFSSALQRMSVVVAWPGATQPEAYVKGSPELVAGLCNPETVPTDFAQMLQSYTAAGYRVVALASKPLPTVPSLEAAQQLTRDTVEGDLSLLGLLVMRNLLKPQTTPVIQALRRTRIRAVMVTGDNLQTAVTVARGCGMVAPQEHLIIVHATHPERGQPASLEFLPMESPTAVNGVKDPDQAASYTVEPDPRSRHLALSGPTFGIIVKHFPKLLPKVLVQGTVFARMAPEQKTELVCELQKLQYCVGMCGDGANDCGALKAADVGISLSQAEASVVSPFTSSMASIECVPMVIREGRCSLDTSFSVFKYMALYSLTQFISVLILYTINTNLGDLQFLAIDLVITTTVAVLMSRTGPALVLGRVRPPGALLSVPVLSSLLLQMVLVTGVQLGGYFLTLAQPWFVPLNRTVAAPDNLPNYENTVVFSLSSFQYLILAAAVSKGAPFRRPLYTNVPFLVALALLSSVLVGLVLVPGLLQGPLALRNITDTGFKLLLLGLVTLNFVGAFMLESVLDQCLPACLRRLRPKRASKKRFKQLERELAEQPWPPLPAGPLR
Test: ATPase assay (ADP-Glo Max), purified ATP13A2 from yeast expression system
Format: biochemical
Set-up: we obtained >95% pure, full length and solubilized ATP13A2; biotin acceptor domain (BAD) tag behind a thrombin cleavage site (C, cleaved yes); made in house; host or cells: S. cerevisiae W303-1B/Gal4-ΔPep4, pYeDP60 vector
Conditions: for Vmax ± SEM: Purified ATP13A2 with 125 µM PA and 125 µM PI(3,5)P2
Experimental: ATPase assay - The ATPase activity of ATP13A2 was assessed using a commercially available luminescence assay (ADP-Glo Max assay, Promega) that monitors the production of ADP via luciferase activity. The reactions were performed for 30 min (37°C) in a final volume of 25 µl. The assay reaction mixture contained 50 mM MOPS-KOH (pH 7), 100 mM KCI, 11 mM MgCl2, 1 mM DTT, 195 µM DDM, various concentrations of the indicated compound, and either microsomes (5 µg) harvested from SH-SY5Y cells overexpressing ATP13A2 (WT or mutants) or purified ATP13A2 (0.5 µg). When purified ATP13A2 was used, we included 125 µM PA, 125 µM PI(3,5)P2 and 19.5 µM DDM in the reaction buffer. The assay was started by the addition of 5 mM ATP and was terminated by adding 25 µl of ADP-Glo Reagent. The 96-well plate was then incubated for 40 min at room temperature, followed by the addition of 50 µl of ADP-Glo Max Detection Reagent. After 40 min, luminescence was detected using a FlexStation 3.0 system (Molecular Devices). Dose-response curves and n/Km/Vmax values were calculated using GraphPad Prism Software (GraphPad Software Inc.).
Transformation and overexpression of ATP13A2 in yeast - The S. cerevisiae W303-1B/Gal4-ΔPep4 strain (leu2-3, his3-11,15, trp1-1::TRP1-GAL10-GAL4, ura3-1, ade2-1, canr, cir^+, ΔPep4 MAT; a kind gift from Rosa Lopez Marques) was transformed according to the lithium acetate/single-stranded carrier DNA/polyethylene glycol method [Gietz, R. D. & Woods, R. A. Methods Enzymol 350, 87-96 (2002)], with the pYeDP60 vector containing a yeast codon optimized version of human ATP13A2 variant 2 (WT or the catalytically dead E343A mutant) followed by a thrombin cleavage site and a C-terminal BAD tag [Azouaoui, H. et al. PLoS One 9, e112176, (2014); Jidenko, M. et al.Protein Expr Purif 48, 32-42, (2006)]. The transformation mixture was grown for 48 h at 30°C on minimal medium agar plates lacking uracil (0.54% yeast nitrogen base without amino acids, 0.12% yeast drop-out mix without Ura, 2% glucose, and 2% agar) to select yeast colonies that acquired the plasmid. These colonies were then cultured in 20 ml of MM-Ura medium (0.67% yeast nitrogen base without amino acids, 0.19% yeast drop-out mix without Ura, and 2% glucose) and grown for 24 h at 28°C and 200 rpm. The MM-Ura yeast pre-culture was used to inoculate 100 ml of MM-Ura medium to a final OD600 of 0.2, followed by a 12 h incubation period (28°C and 200 rpm). The second pre-culture was inoculated into 4.5 l of YPGE2X medium (2% yeast extract, 2% bactopeptone, 1% glucose, and 2.7% ethanol) to a final OD600 of 0.05 and grown for 36 h (28°C and 175 rpm). ATP13A2-BAD expression was induced with 2% galactose, followed by a second galactose induction 12 h later. After another 12 h, the pellet was collected (1,000 x g; 10 min; 4°C).
Yeast membrane preparation - Yeast cells were broken with glass beads using a BeadBeater (BioSpec products). The lysis buffer contained 50 mM Tris-HCI (pH 7.5), 1 mM EDTA, 0.6 M sorbitol, 1 mM phenylmethylsulfonyl fluoride and SigmaFast protease inhibitor. To remove cell debris and nuclei, the crude extract was centrifuged at 2,000 x g for 20 min (4°C). The supernatant (S1) was centrifuged at 20,000 x g for 20 min (4°C) to pellet the heavy membrane fraction (P2), and the resulting supernatant (S2) was further centrifuged at 200,000 x g for 1 h (4°C). The resulting pellet (i.e., the light membrane fraction, P3) was resuspended in 20 mM HEPES-Tris (pH 7.4), 0.3 M sucrose and 0.1 mM CaCl2. The total protein concentration was determined using a Bradford assay (B6916, Sigma-Aldrich).
ATP13A2-BAD purification - The method used to purify ATP13A2 was based on the purification of overexpressed Drs2p from yeast membranes. Yeast P3 membranes were diluted to 5 mg of total protein/ml in SSR buffer (50 mM MOPS-KOH (pH 7), 100 mM KCI, 20% glycerol, 5 mM MgCl2, 1 mM DTT, and SigmaFast protease inhibitor cocktail) and solubilized using DDM, with a detergent to protein ratio of 1:1.

| SMILES | Vmax ± SEM | ATPase activity of purified ATP13A2 (indicated SPM concentrations) |
| --- | --- | --- |
| NCCCCNCCCN [Spermidine, spermidine] | 194 ± 26 nmol ADP/mg/min |  |
| NCCCNCCCCNCCCN [Spermine, spermine] | 159 ± 10 nmol ADP/mg/min | stimulated the ATPase activity |
